For the assay, the target named is T1, myeloperoxidase (MPO) (Homo sapiens, UniProt P05164).
T1 construct: isolated human MPO
The assay can be described thus: luminol luminescence assay of isolated human MPO with H2O2 and NaCl. It is filed as biochemical.

T1 sequence (P05164 165-273): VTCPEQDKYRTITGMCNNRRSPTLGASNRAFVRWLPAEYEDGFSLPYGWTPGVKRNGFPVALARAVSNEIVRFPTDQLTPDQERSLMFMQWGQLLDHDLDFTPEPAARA
T1 sequence (P05164 279-745): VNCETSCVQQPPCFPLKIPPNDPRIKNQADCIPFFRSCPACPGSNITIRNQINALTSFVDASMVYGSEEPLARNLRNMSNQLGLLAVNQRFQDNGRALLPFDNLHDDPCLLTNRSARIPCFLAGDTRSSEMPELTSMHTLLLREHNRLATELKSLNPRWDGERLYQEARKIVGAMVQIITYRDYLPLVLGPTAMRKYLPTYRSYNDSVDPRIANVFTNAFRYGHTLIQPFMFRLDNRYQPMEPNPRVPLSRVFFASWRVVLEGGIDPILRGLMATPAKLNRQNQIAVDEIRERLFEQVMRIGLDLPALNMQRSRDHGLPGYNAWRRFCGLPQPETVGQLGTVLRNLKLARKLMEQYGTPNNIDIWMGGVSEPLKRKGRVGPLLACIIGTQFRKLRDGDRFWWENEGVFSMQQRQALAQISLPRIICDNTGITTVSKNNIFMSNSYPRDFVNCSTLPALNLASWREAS

As for `CC(C)OCCn1c(=S)[nH]c(=O)c2[nH]ccc21` [AZD3241], the IC50 (as a rule, the midpoint of a concentration-inhibition curve) was around 1200 nM.

The values above are taken from PMC7522858, “The Synthetic Myeloperoxidase Inhibitor AZD3241 Ameliorates Dextran Sodium Sulfate Stimulated Experimental Colitis” (Frontiers in Pharmacology, 2020).
